One may read the EC50 as the concentration at which the effect is half-maximal.

The values below come from ChEMBL document CHEMBL1681722, “5-oxo-15-HETE: total synthesis and bioactivity” (Bioorg Med Chem Lett, 2011).

Calls of active or inactive are those of the source. No cut-off for these calls is given here.

Data set [1] can be described thus: Stability of the compound at -80 degC after 3 years by reversed-phase HPLC. The data set is classed as physicochemical. The settings on record: 26298 h.
In data set [2] the target is T1, Oxoeicosanoid receptor 1 (Homo sapiens, UniProt Q8TDS5). Nature of the data set: Agonist activity at 5-oxo-ETE receptor in human neutrophils assessed as stimulation of ca2+ mobilization at 100 nM in presence of 5-oxo-ETE. The data set is classed as functional. (A change in cytosolic calcium serves as a functional read-out for many receptors and channels.)
T1 sequence (Q8TDS5 whole entry): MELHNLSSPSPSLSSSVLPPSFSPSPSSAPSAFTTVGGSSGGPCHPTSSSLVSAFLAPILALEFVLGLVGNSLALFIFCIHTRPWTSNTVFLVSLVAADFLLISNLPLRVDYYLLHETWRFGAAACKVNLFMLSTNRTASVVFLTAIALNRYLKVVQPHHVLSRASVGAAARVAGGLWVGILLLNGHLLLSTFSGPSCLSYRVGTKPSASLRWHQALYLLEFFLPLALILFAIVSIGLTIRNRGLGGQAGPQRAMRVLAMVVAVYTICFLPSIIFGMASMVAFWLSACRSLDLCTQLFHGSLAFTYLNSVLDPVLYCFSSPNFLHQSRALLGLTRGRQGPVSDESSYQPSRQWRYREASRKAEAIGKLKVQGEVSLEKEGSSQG
Data set [3] has as its target T1, Oxoeicosanoid receptor 1. Nature of the data set: Agonist activity at 5-oxo-ETE receptor in human neutrophils assessed as stimulation of ca2+ mobilization. The data set is classed as functional.

As to `CCCCC[C@H](O)/C=C/C=C\C/C=C\C=C\C(=O)CCCC(=O)O`, the Stability entry in data set [1] was “Stable”. The result on Oxoeicosanoid receptor 1 [2] was inactive. Besides, on Oxoeicosanoid receptor 1 [3], the EC50 was 56 nM.

Take `CCCCC/C=C\C/C=C\C/C=C\C=C\C(=O)CCCC(=O)O` [5-OXO-ETE]: the EC50 at Oxoeicosanoid receptor 1 [3] was 7 nM.
